Here are results for six cell lines from the supplement of paper PMC10307832.

Experiment in all cases: relative viability (nuclei count vs DMSO), 5 days (fraction); higher = more cells survive
Compound in the assay “YM155 + Phenformin”: COCC[n+]1c2c(n(Cc3cnccn3)c1C)C(=O)c1ccccc1C2=O [YM155] + N=C(N)NC(=N)NCCc1ccccc1 [Phenformin] (partner 250 µM)
An outline of the steps:
(§1)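 Lung cancer cell lines were seeded in 1536-well plates and dosed by pin tool the next day, with either a single drug or a fixed anchor-drug dose combined with five library-drug doses (not always all listed) spaced in √10 steps. Five days later, one step fixed the cells and stained their nuclei (final 0.05% Triton X-100, 1% formaldehyde, 1 ug/ml Hoechst), and nuclei were counted on 4× images. Relative viability is the nuclei count in treated wells divided by the count in vehicle wells, and each value is the median of duplicate plates.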

Compound in the assay “Quizartinib + Pemetrexed”: CC(C)(C)c1cc(NC(=O)Nc2ccc(-c3cn4c(n3)sc3cc(OCCN5CCOCC5)ccc34)cc2)no1 [Quizartinib] + Nc1nc2[nH]cc(CCc3ccc(C(=O)N[C@@H](CCC(=O)O)C(=O)O)cc3)c2c(=O)[nH]1 [Pemetrexed] (partner 0.2 µM)
In a few lines:
as §1

Compound in the assay “Quizartinib + Navitoclax”: CC(C)(C)c1cc(NC(=O)Nc2ccc(-c3cn4c(n3)sc3cc(OCCN5CCOCC5)ccc34)cc2)no1 [Quizartinib] + CC1(C)CCC(c2ccc(Cl)cc2)=C(CN2CCN(c3ccc(C(=O)NS(=O)(=O)c4ccc(N[C@H](CCN5CCOCC5)CSc5ccccc5)c(S(=O)(=O)C(F)(F)F)c4)cc3)CC2)C1 [Navitoclax] (partner 0.5 µM)
In a few lines:
as §1

Compound in the assay “Quizartinib + Bortezomib”: CC(C)(C)c1cc(NC(=O)Nc2ccc(-c3cn4c(n3)sc3cc(OCCN5CCOCC5)ccc34)cc2)no1 [Quizartinib] + CC(C)C[C@H](NC(=O)[C@H](Cc1ccccc1)NC(=O)c1cnccn1)B(O)O [Bortezomib] (partner 0.002 µM)
An outline of the steps: as §1

For the cell line NCI-H1734, the relative viability with YM155 + Phenformin (first compound 0.002 µM) came out at 0.43; in the assay with YM155 + Phenformin (first compound 0.006325 µM) it was 0.451; in the assay with YM155 + Phenformin (first compound 0.02 µM), 0.404; with YM155 + Phenformin (first compound 0.06325 µM), 0.509; in the assay with Quizartinib + Pemetrexed (first compound 0.001 µM), 0.375; in the assay with Quizartinib + Pemetrexed (first compound 0.003162 µM), 0.412. In addition, the relative viability with Quizartinib + Pemetrexed (first compound 0.01 µM) amounted to 0.407; in the assay with Quizartinib + Pemetrexed (first compound 0.03162 µM) it was 0.457; with Quizartinib + Pemetrexed (first compound 0.1 µM) it was 0.412; with Quizartinib + Navitoclax (first compound 0.001 µM) it was 0.741; with Quizartinib + Navitoclax (first compound 0.003162 µM) it was 0.794; with Quizartinib + Navitoclax (first compound 0.01 µM), 0.888. For the same cell line, the relative viability in the assay with Quizartinib + Navitoclax (first compound 0.03162 µM) came to 0.788; with Quizartinib + Navitoclax (first compound 0.1 µM), 0.849; in the assay with Quizartinib + Bortezomib (first compound 0.001 µM), 0.862; in the assay with Quizartinib + Bortezomib (first compound 0.003162 µM), 0.769; in the assay with Quizartinib + Bortezomib (first compound 0.01 µM) it was 1.05; in the assay with Quizartinib + Bortezomib (first compound 0.03162 µM) it was 0.776. The relative viability with Quizartinib + Bortezomib (first compound 0.1 µM) was found to be 0.944.

As for NCI-H1755, the relative viability with YM155 + Phenformin (first compound 0.002 µM) worked out at 0.626; with YM155 + Phenformin (first compound 0.006325 µM) it was 0.575; with YM155 + Phenformin (first compound 0.02 µM), 0.602; with YM155 + Phenformin (first compound 0.06325 µM), 0.657; with Quizartinib + Pemetrexed (first compound 0.001 µM), 0.316; with Quizartinib + Pemetrexed (first compound 0.003162 µM), 0.399. For the same cell line, the relative viability stood at 0.412 in the assay with Quizartinib + Pemetrexed (first compound 0.01 µM); 0.464 with Quizartinib + Pemetrexed (first compound 0.03162 µM); 0.378 in the assay with Quizartinib + Pemetrexed (first compound 0.1 µM); 0.925 with Quizartinib + Navitoclax (first compound 0.001 µM); 0.976 with Quizartinib + Navitoclax (first compound 0.003162 µM); 1.01 with Quizartinib + Navitoclax (first compound 0.01 µM). Besides, the relative viability with Quizartinib + Navitoclax (first compound 0.03162 µM) came to 1; with Quizartinib + Navitoclax (first compound 0.1 µM) it was 0.926; in the assay with Quizartinib + Bortezomib (first compound 0.001 µM) it was 0.858; with Quizartinib + Bortezomib (first compound 0.003162 µM) it was 0.979; in the assay with Quizartinib + Bortezomib (first compound 0.01 µM), 0.956; with Quizartinib + Bortezomib (first compound 0.03162 µM) it was 0.973. Further, the relative viability in the assay with Quizartinib + Bortezomib (first compound 0.1 µM) was 0.969.

Take NCI-H1792: the relative viability with YM155 + Phenformin (first compound 0.02 µM) came out at 0.285; with YM155 + Phenformin (first compound 0.06325 µM), 0.523; with Quizartinib + Pemetrexed (first compound 0.001 µM), 0.624; with Quizartinib + Pemetrexed (first compound 0.003162 µM), 0.79; with Quizartinib + Pemetrexed (first compound 0.01 µM), 0.913; in the assay with Quizartinib + Pemetrexed (first compound 0.03162 µM), 0.69. The relative viability in the assay with Quizartinib + Pemetrexed (first compound 0.1 µM) worked out at 0.713; with Quizartinib + Navitoclax (first compound 0.001 µM), 0.584; in the assay with Quizartinib + Navitoclax (first compound 0.003162 µM), 0.646; in the assay with Quizartinib + Navitoclax (first compound 0.01 µM), 0.697; in the assay with Quizartinib + Navitoclax (first compound 0.03162 µM), 0.617; in the assay with Quizartinib + Navitoclax (first compound 0.1 µM) it was 0.587. The relative viability with Quizartinib + Bortezomib (first compound 0.001 µM) was found to be 0.783; with Quizartinib + Bortezomib (first compound 0.003162 µM), 0.947; with Quizartinib + Bortezomib (first compound 0.01 µM), 1.01; with Quizartinib + Bortezomib (first compound 0.03162 µM), 0.793; with Quizartinib + Bortezomib (first compound 0.1 µM), 0.952.

Take NCI-H1915: the relative viability worked out at 0.351 in the assay with YM155 + Phenformin (first compound 0.002 µM); 0.357 in the assay with YM155 + Phenformin (first compound 0.006325 µM); 0.368 in the assay with YM155 + Phenformin (first compound 0.02 µM); 0.355 in the assay with YM155 + Phenformin (first compound 0.06325 µM); 0.49 in the assay with Quizartinib + Pemetrexed (first compound 0.001 µM); 0.47 with Quizartinib + Pemetrexed (first compound 0.003162 µM). Also, the relative viability with Quizartinib + Pemetrexed (first compound 0.01 µM) is 0.552; in the assay with Quizartinib + Pemetrexed (first compound 0.03162 µM) it was 0.477; in the assay with Quizartinib + Pemetrexed (first compound 0.1 µM), 0.488; with Quizartinib + Navitoclax (first compound 0.001 µM), 0.771; with Quizartinib + Navitoclax (first compound 0.003162 µM), 0.75; with Quizartinib + Navitoclax (first compound 0.01 µM) it was 0.833. Also, the relative viability was 0.822 in the assay with Quizartinib + Navitoclax (first compound 0.03162 µM); 0.785 with Quizartinib + Navitoclax (first compound 0.1 µM); 0.924 with Quizartinib + Bortezomib (first compound 0.001 µM); 0.836 with Quizartinib + Bortezomib (first compound 0.003162 µM); 0.916 with Quizartinib + Bortezomib (first compound 0.01 µM); 1.06 with Quizartinib + Bortezomib (first compound 0.03162 µM). Further, the relative viability with Quizartinib + Bortezomib (first compound 0.1 µM) came to 1.01.

In the case of NCI-H1975, the relative viability came to 0.384 with YM155 + Phenformin (first compound 0.002 µM); 0.415 with YM155 + Phenformin (first compound 0.006325 µM); 0.406 with YM155 + Phenformin (first compound 0.02 µM); 0.395 in the assay with YM155 + Phenformin (first compound 0.06325 µM); 0.283 with Quizartinib + Pemetrexed (first compound 0.001 µM); 0.306 in the assay with Quizartinib + Pemetrexed (first compound 0.003162 µM). Further, the relative viability in the assay with Quizartinib + Pemetrexed (first compound 0.01 µM) was found to be 0.316; with Quizartinib + Pemetrexed (first compound 0.03162 µM) it was 0.295; with Quizartinib + Pemetrexed (first compound 0.1 µM), 0.294; in the assay with Quizartinib + Navitoclax (first compound 0.001 µM), 1.02; with Quizartinib + Navitoclax (first compound 0.003162 µM) it was 1.1; with Quizartinib + Navitoclax (first compound 0.01 µM), 1.19. The relative viability stood at 1.06 with Quizartinib + Navitoclax (first compound 0.03162 µM); 1.1 with Quizartinib + Navitoclax (first compound 0.1 µM); 0.333 with Quizartinib + Bortezomib (first compound 0.001 µM); 0.374 with Quizartinib + Bortezomib (first compound 0.003162 µM); 0.389 with Quizartinib + Bortezomib (first compound 0.01 µM); 0.368 with Quizartinib + Bortezomib (first compound 0.03162 µM). The relative viability with Quizartinib + Bortezomib (first compound 0.1 µM) came out at 0.497.

NCI-H1993: the relative viability came out at 0.463 in the assay with YM155 + Phenformin (first compound 0.002 µM); 0.547 in the assay with YM155 + Phenformin (first compound 0.006325 µM); 0.488 in the assay with YM155 + Phenformin (first compound 0.02 µM); 0.512 in the assay with YM155 + Phenformin (first compound 0.06325 µM); 0.55 with Quizartinib + Pemetrexed (first compound 0.001 µM); 0.566 with Quizartinib + Pemetrexed (first compound 0.003162 µM). Besides, the relative viability with Quizartinib + Pemetrexed (first compound 0.01 µM) was found to be 0.567; with Quizartinib + Pemetrexed (first compound 0.03162 µM), 0.67; in the assay with Quizartinib + Pemetrexed (first compound 0.1 µM), 0.59; with Quizartinib + Navitoclax (first compound 0.001 µM), 0.964; with Quizartinib + Navitoclax (first compound 0.003162 µM), 0.906; with Quizartinib + Navitoclax (first compound 0.01 µM) it was 1.13. Moreover, the relative viability with Quizartinib + Navitoclax (first compound 0.03162 µM) stood at 0.959; in the assay with Quizartinib + Navitoclax (first compound 0.1 µM), 0.793; in the assay with Quizartinib + Bortezomib (first compound 0.001 µM), 1.2; with Quizartinib + Bortezomib (first compound 0.003162 µM), 1.17; with Quizartinib + Bortezomib (first compound 0.01 µM), 1.19; with Quizartinib + Bortezomib (first compound 0.03162 µM), 1.02. Moreover, in the assay with Quizartinib + Bortezomib (first compound 0.1 µM), the relative viability turned out to be 1.33.
